Reference: ChEMBL document CHEMBL1201862, “PubChem BioAssay data set” (2004)
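Five concentrations, 48 hours, 96-well plates. GI50 marks 50% less growth.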 Activity calls are given as the source filed them. No stated cut-off is given here; in the data, active = GI50 up to about 1.1 µM and inactive = higher.

What was measured:
Assay in all cases: inhibition of tumour cell growth, NCI panel, 48 h
786-0 = system: 786-0
A498 = system: A498
ACHN = system: ACHN
CAKI-1 = system: CAKI-1
CCRF-CEM = system: CCRF-CEM
COLO 205 = system: COLO 205
DLD-1 = system: DLD-1
DMS-114 = system: DMS-114
DMS-273 = system: DMS-273
HCC 2998 = system: HCC 2998
HCT-116 = system: HCT-116
HCT-15 = system: HCT-15
HL-60 = system: HL-60
HOP-62 = system: HOP-62
HOP-92 = system: HOP-92
IGROV-1 = system: IGROV-1
K562 = system: K562
LXFL 529 = system: LXFL 529
M14 = system: M14
MOLT-4 = system: MOLT-4
Malme-3M = system: Malme-3M
NCI-H226 = system: NCI-H226
NCI-H23 = system: NCI-H23
NCI-H522 = system: NCI-H522
OVCAR-4 = system: OVCAR-4
RPMI-8226 = system: RPMI-8226
SF-268 = system: SF-268
SF-539 = system: SF-539
SK-MEL-28 = system: SK-MEL-28
SK-MEL-2 = system: SK-MEL-2
SK-OV-3 = system: SK-OV-3
SN12C = system: SN12C
SNB-75 = system: SNB-75
SR = system: SR
UACC-62 = system: UACC-62
UO-31 = system: UO-31
EKVX = system: EKVX
HT-29 = system: HT-29
KM-20L2 = system: KM-20L2
KM12 = system: KM12
LOX IMVI = system: LOX IMVI
M19-MEL = system: M19-MEL
MCF7 = system: MCF7
NCI/ADR-RES = system: NCI/ADR-RES
OVCAR-5 = system: OVCAR-5
OVCAR-8 = system: OVCAR-8
SF-295 = system: SF-295
SNB-19 = system: SNB-19
SNB-78 = system: SNB-78
SW-620 = system: SW-620
U-251 = system: U-251
UACC-257 = system: UACC-257
XF498 = system: XF498
A549 = system: A549
OVCAR-3 = system: OVCAR-3
HOP-18 = system: HOP-18

Row | Compound | GI50 (A498) | GI50 (CCRF-CEM) | GI50 (COLO 205) | GI50 (DLD-1) | GI50 (HCC 2998) | GI50 (HCT-116) | GI50 (HCT-15) [µM] | GI50 (HL-60) | GI50 (HOP-92) | GI50 (NCI-H226) | GI50 (RPMI-8226) | GI50 (SF-268) | GI50 (SF-539) | GI50 (SK-MEL-28) | GI50 (SK-OV-3) | GI50 (UO-31) | GI50 (HT-29) | GI50 (KM12) | GI50 (OVCAR-8) | GI50 (SF-295) | further results
1 | COc1cc([C@H]2Oc3cc(O)c4c(=O)cc(-c5ccccc5)oc4c3O[C@@H]2CO)ccc1O | 21.9 µM (inactive) | 65.6 µM (inactive) | 69.5 µM (inactive) | 46.9 µM (inactive) | 58.5 µM (inactive) | 30.1 µM (inactive) | 91.2 | 50.8 µM (inactive) | 29.7 µM (inactive) | 32.4 µM (inactive) | 59.8 µM (inactive) | 15.6 µM (inactive) | 22.2 µM (inactive) | 28.6 µM (inactive) | 27.4 µM (inactive) | 13.8 µM (inactive) | – | – | – | – | GI50 (786-0): 23.4 µM (inactive); GI50 (ACHN): 20.3 µM (inactive); GI50 (CAKI-1): 26.4 µM (inactive); GI50 (DMS-114): 28 µM (inactive); GI50 (DMS-273): 51.3 µM (inactive); GI50 (HOP-62): 55.1 µM (inactive); GI50 (IGROV-1): 34 µM (inactive); GI50 (K562): 48.4 µM (inactive); GI50 (LXFL 529): 21.6 µM (inactive); GI50 (M14): 39 µM (inactive); GI50 (MOLT-4): 46.5 µM (inactive); GI50 (Malme-3M): 19 µM (inactive); GI50 (NCI-H23): 22.5 µM (inactive); GI50 (NCI-H522): 19.3 µM (inactive); GI50 (OVCAR-4): 19.9 µM (inactive); GI50 (SK-MEL-2): 40.4 µM (inactive); GI50 (SN12C): 32.9 µM (inactive); GI50 (SNB-75): 16.8 µM (inactive); GI50 (SR): 29.4 µM (inactive); GI50 (UACC-62): 25.1 µM (inactive)
2 | CC1OC(O[C@@H]2C=C3CC[C@@H]4[C@H](CC[C@]5(C)[C@@H](c6ccc(=O)oc6)CC[C@]45O)[C@@]3(C)CC2)C(O)C(OC2OC(CO)C(O)C(O)C2O)C1O (stereo not given in full) | 0.025 µM (active) | 0.025 µM (active) | 0.025 µM (active) | 0.025 µM (active) | 0.025 µM (active) | 0.025 µM (active) | 0.025 | 0.025 µM (active) | 0.025 µM (active) | 0.0255 µM (active) | 0.025 µM (active) | – | – | 0.025 µM (active) | – | 0.025 µM (active) | 0.0281 µM (active) | 0.025 µM (active) | 0.025 µM (active) | 0.025 µM (active) | GI50 (EKVX): 0.025 µM (active); GI50 (IGROV-1): 0.025 µM (active); GI50 (K562): 0.025 µM (active); GI50 (KM-20L2): 0.025 µM (active); GI50 (LOX IMVI): 0.025 µM (active); GI50 (M19-MEL): 0.025 µM (active); GI50 (MCF7): 0.025 µM (active); GI50 (NCI/ADR-RES): 0.025 µM (active); GI50 (OVCAR-5): 0.0275 µM (active); GI50 (SK-MEL-2): 0.025 µM (active); GI50 (SN12C): 0.025 µM (active); GI50 (SNB-19): 0.025 µM (active); GI50 (SNB-75): 0.025 µM (active); GI50 (SNB-78): 0.025 µM (active); GI50 (SW-620): 0.025 µM (active); GI50 (U-251): 0.025 µM (active); GI50 (UACC-257): 0.025 µM (active); GI50 (UACC-62): 0.025 µM (active); GI50 (XF498): 0.025 µM (active)
3 | COc1cc(C2c3cc4c(cc3[C@@H](NC3CCN(Cc5ccccc5)CC3)C3COC(=O)[C@H]23)OCO4)cc(OC)c1O (stereo not given in full) | 0.136 µM (active) | 0.0251 µM (active) | – | 0.408 µM (active) | 0.274 µM (active) | 0.195 µM (active) | 0.132 | 0.0189 µM (active) | – | 0.0137 µM (active) | – | 0.203 µM (active) | 0.0706 µM (active) | 0.627 µM (active) | 0.0457 µM (active) | – | 0.243 µM (active) | 0.33 µM (active) | 0.161 µM (active) | 0.0311 µM (active) | GI50 (A549): 0.0133 µM (active); GI50 (HOP-62): 0.0282 µM (active); GI50 (KM-20L2): 0.354 µM (active); GI50 (M19-MEL): 0.308 µM (active); GI50 (OVCAR-3): 0.277 µM (active); GI50 (OVCAR-5): 0.34 µM (active); GI50 (SNB-19): 0.177 µM (active)
4 | O=c1c2cc(O)ccc2n2nnc3ccc(NCCNCCO)c1c32 | – | – | 4.26 µM (inactive) | – | – | 2.65 µM (inactive) | 49.1 | – | 2.06 µM (inactive) | 2.31 µM (inactive) | 14.1 µM (inactive) | 1.59 µM (inactive) | 3.85 µM (inactive) | – | 5.4 µM (inactive) | 16.3 µM (inactive) | 6.62 µM (inactive) | 11.2 µM (inactive) | 1.86 µM (inactive) | 11.7 µM (inactive) | GI50 (786-0): 3.55 µM (inactive); GI50 (CAKI-1): 4.2 µM (inactive); GI50 (DMS-114): 1.71 µM (inactive); GI50 (EKVX): 14.5 µM (inactive); GI50 (HOP-18): 24.3 µM (inactive); GI50 (LOX IMVI): 1.71 µM (inactive); GI50 (LXFL 529): 1.86 µM (inactive); GI50 (NCI-H23): 5.92 µM (inactive); GI50 (OVCAR-4): 3.84 µM (inactive); GI50 (SNB-19): 4.85 µM (inactive); GI50 (U-251): 1.82 µM (inactive)
